The values that follow come from PMC10194981, “Chemosensory protein regulates the behavioural response of Frankliniella intonsa and Frankliniella occidentalis to tomato zonate spot virus–Infected pepper (Capsicum annuum)” (PLOS Pathogens, 2023).

For orientation: IC50 means the point on the concentration scale where inhibition reaches its midpoint. Lower therefore signals inhibition by little substance. Usually Ki stands for a dissociation constant, usually derived from enzyme kinetics or from competition with a known ligand. Lower therefore signals tighter binding.

In one assay the target is FintCSP1-Val132Ala (Frankliniella intonsa, UniProt A0A891LVF4, V132A). The experiment in a line: Fluorescence (1-NPN) binding and competitive binding assay, FintCSP1 mutant (negative control residue). How it is done: (§1) The binding affinity of FintCSP1 and FoccCSP to the fluorescent probe N-phenyl-1-naphthylamine (1-NPN) was tested using a Spectramax M2 fluorescence spectrometer (Molecular Devices, USA) as reported previously. Volatile compounds and 1-NPN were first dissolved to a concentration of 1 mM in HPLC-grade methanol and dissolved to their indicated final concentration (2–20 μM) to titrate 2 μM protein solutions resuspended in 50 mM Tris-HCl (pH 7.4). The 1-NPN/FintCSP1 or 1-NPN/FoccCSP mixture was excited at 280 nm, and the emission spectra were recorded at 415 nm. The binding constants (Kd) of FintCSP1 or FoccCSP to 1-NPN were calculated by Scatchard analysis using Prism 5 software (GraphPad, La Jolla, CA, USA). Assuming a protein activity of 100% and that the volatile compound binds to the protein in a 1:1 ratio at saturation, the dissociation constants (Ki) of FintCSP1 or FoccCSP for each ligand were calculated according to the IC50 (the concentration when the ligand replaces 50% of the probe) value of the volatile compounds. The Ki values were calculated according to the following equation: Ki = [IC50]/(1 + [1-NPN]/K1-NPN), where [1-NPN] is the free concentration of 1-NPN, and K1-NPN is the Kd of the 1-NPN/FintCSP1 or 1-NPN/FoccCSP.
Sequence of FintCSP1-Val132Ala (A0A891LVF4 entry or part of it V132A): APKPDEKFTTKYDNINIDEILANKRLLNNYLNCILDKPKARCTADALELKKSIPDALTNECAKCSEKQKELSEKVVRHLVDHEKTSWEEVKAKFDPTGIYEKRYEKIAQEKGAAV
To verify the key amino acids of FintCSP1 and FoccCSP that bind to cis-3-hexenal, six amino acid residues of FintCSP1 were mutated (Lys26Ala, Phe27Ala, Thr28Ala, Glu67Ala, Ser84Ala, and the negative control residue Val132Ala) and nine amino acid residues of FoccCSP were mutated (Lys26Ala, Phe27Ala, Thr28Ala, Thr29Ala, Tyr31Ala, Asp64Ala, Glu67Ala, Gln87Ala, and the negative control residue Val132Ala) with the Fast Mutagenesis System Kit (Transgen Biotech, Beijing, China) using the pET-30a/FintCSP1 and pET-30a/FoccCSP plasmid DNA as template, respectively. […] After validation by sequencing, each recombinant variant protein was produced and purified as described above, and their binding affinity to cis-3-hexenal was measured as described above.

The next assay addresses FoccCSP-Gln87Ala (Frankliniella occidentalis, UniProt G4Y3X1, Q87A). Briefly: Fluorescence (1-NPN) binding and competitive binding assay, FoccCSP mutant. As to the method:
as §1
(§2) To verify the key amino acids of FintCSP1 and FoccCSP that bind to cis-3-hexenal, six amino acid residues of FintCSP1 were mutated (Lys26Ala, Phe27Ala, Thr28Ala, Glu67Ala, Ser84Ala, and the negative control residue Val132Ala) and nine amino acid residues of FoccCSP were mutated (Lys26Ala, Phe27Ala, Thr28Ala, Thr29Ala, Tyr31Ala, Asp64Ala, Glu67Ala, Gln87Ala, and the negative control residue Val132Ala) with the Fast Mutagenesis System Kit (Transgen Biotech, Beijing, China) using the pET-30a/FintCSP1 and pET-30a/FoccCSP plasmid DNA as template, respectively. Specific primers were designed using Primer Premier 5.0 according to the instructions of the Fast Mutagenesis System Kit (S1 Table). After validation by sequencing, each recombinant variant protein was produced and purified as described above, and their binding affinity to cis-3-hexenal was measured as described above.

The next assay has as its target FoccCSP-Lys26Ala (Frankliniella occidentalis, UniProt G4Y3X1, K26A). Described as above. How it is done: as §1, §2
The next assay deals with FoccCSP-Tyr31Ala (Frankliniella occidentalis, UniProt G4Y3X1, Y31A). Described as above. As to the method: as §1, §2
Sequence of FoccCSP-Tyr31Ala (G4Y3X1 entry or part of it Y31A): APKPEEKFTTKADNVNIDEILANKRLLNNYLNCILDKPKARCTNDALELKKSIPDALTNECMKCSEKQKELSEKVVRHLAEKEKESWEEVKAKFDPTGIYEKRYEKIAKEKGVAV
In a further assay the test system is F. intonsa antennae. The experiment in a line: Electroantennogram (EAG) assay. The arrangement: species or system Frankliniella intonsa. As to the method:
The FintCSP1, FintCSP2, FintOBP, FintOR, FoccCSP, and enhanced green fluorescent protein (EGFP) coding sequences were obtained from GenBank under accession numbers MT199111, MT211602, OK067245, MT211603, AEP27186.1, and U55761.1, respectively. Primers were designed using Primer Premier 5.0, and the T7 promoter sequence (5′-[…]-3′) was added to the 5′ end of each primer (S1 Table). DNA fragments containing T7 promoter sequences were amplified by PCR using pEASY-T1/target gene or pUC-EGFP (preserved in the laboratory) plasmid DNA as template. Then, a double-stranded RNA (dsRNA) was produced from each target gene using the HiScribe T7 Quick High Yield RNA Synthesis Kit (New England Biolabs) according to the manufacturer’s instructions. Six hundred 2-day-old female F. intonsa or two hundred 2-day-old female F. occidentalis adults were anesthetized using CO2 and microinjected with 40 nL (3 μg/μL) dsRNA (dsFintCSP1 dsFintCSP2, dsFintOBP, dsFintOR or dsFoccCSP or dsEGFP) using a CellTram Oil microinjector (Eppendorf, Hamburg, Germany). The injected thrips were kept on broad beans in an artificial climate incubator as described above and used in subsequent RNAi experiments. Three biological replicates were conducted for each treatment with each dsRNA.
At 24 h after dsRNA injection, the electrophysiological responses of F. intonsa antennae to six volatile components (i.e., m-cymene, cis-3-hexenal, (+)-2-carene, trans-2-hexenal, α-phellandrene, and α-humulene) or F. occidentalis antennae to cis-3-hexenal were recorded using EAG. Antennae of female adult thrips were cut off at the base, and the distal terminus was carefully removed. The tested compounds were dissolved in liquid paraffin, with pure liquid paraffin used as a negative control. An Ag-AgCl2 glass electrode and Kaissling electrode solution were used in the experiment according to Tian et al.. The base of the antenna was inserted into the glass capillary filled with electrode solution at the end of the reference electrode; the top of the antenna was connected to the glass capillary at the end of the recording electrode to ensure no bubbles in the glass capillary. After successful connection, the antennae were stimulated with each chemical in the following order: liquid paraffin, volatile compounds, and liquid paraffin. Stimulus time was 0.2 s with each stimulus at 40 s intervals. At least 10 antennae were tested for each volatile compound. The EAG values to volatile compounds were calculated using the following equation: absolute value of EAG reaction = reaction value of the tested sample—average value of two control measurements.

The test system of a further assay is M. sexta larvae. The arrangement: method as in PMID 25261073. As to conditions: cited from earlier work.

Sequence of FoccCSP-Gln87Ala (G4Y3X1 entry or part of it Q87A): as the sequence (G4Y3X1 entry or part of it Y31A) above, with A12Y, Q68A counted along it
Sequence of FoccCSP-Lys26Ala (G4Y3X1 entry or part of it K26A): as the sequence (G4Y3X1 entry or part of it Y31A) above, with K7A, A12Y counted along it

In the case of `CC/C=C\CC=O` [cis-3-hexenal], the IC50 was found to be 39.24 ± 0.36 µM at FintCSP1-Val132Ala, 47.47 ± 0.44 µM on FoccCSP-Gln87Ala, 36 ± 0.79 µM at FoccCSP-Lys26Ala and 43.9 ± 0.66 µM at FoccCSP-Tyr31Ala. In addition, the Ki turned out to be 32.18 ± 0.29 µM at FintCSP1-Val132Ala, 43.68 ± 0.41 µM on FoccCSP-Gln87Ala, 32.6 ± 0.71 µM at FoccCSP-Lys26Ala and 37.4 ± 0.56 µM on FoccCSP-Tyr31Ala. The “binding affinity to cis-3-hexenal (in words)” value on FoccCSP-Gln87Ala (FoccCSP-Gln87Ala compared to the wild-type protein), at FoccCSP-Lys26Ala (FoccCSP-Lys26Ala compared to the wild-type protein) and on FoccCSP-Tyr31Ala (FoccCSP-Tyr31Ala compared to the wild-type protein) was “significantly decreased binding affinities” each time. Also, the EAG peak amplitude result in the assay on F. intonsa antennae (10 mg/L in liquid paraffin, excised F. intonsa antennae) is recorded as “–0.077 mV”. Further, the “EAG response of FintCSP1-silenced antennae (in words)” value in the assay with F. intonsa antennae (dsFintCSP1-injected compared to dsEGFP-injected F. intonsa, 24 h after injection) is on record as “significantly lower response”. For the same compound, in the assay with M. sexta larvae, the “effect on M. sexta larvae (in words)” value is “feeding stimulant”.
